# Assay results: patent US20080138403A1, “PHARMACEUTICAL DOSAGE FORMS OF OXCARBAZEPINE” (Sun Pharmaceutical Industries Ltd., priority 2006, published 2008)
# Columns and labels:
# [1] = particle size by Malvern laser diffraction; assay type: physicochemical
# Procedure: The particle size of oxcarbazepine may be measured using laser light diffraction technique based instrument such as a Malvern Mastersizer Microplus apparatus. Other known methods of measuring particle size may also be used. The particle size distribution of oxcarbazepine was checked after subjecting the slurry of oxcarbazepine and the hydrophilic polymer in a solvent, to mixing in a colloid mill. The particle size was determined by Malvern laser diffraction technique. The particles were dispersed in an aqueous dispersion medium of Tween 20 (0.1 ml/litre).
# [2] = cited from earlier work
# [3] = Example 1 slurry after mixing in colloid mill, dispersed in aqueous Tween 20
# [4] = oxcarbazepine used for the slurry of Example 2
smiles,measurement,setting,value
"NC(=O)N1c2ccccc2CC(=O)c2ccccc21 [oxcarbazepine, 10,11-Dihydro-10-oxo-5H-dibenz [b,f]azepine-5-carboxamide]","Particle size D (v, 0.1) 10% particles undersized",[1]; [3],6.93 μm
same,"Particle size D (v, 0.5) 50% particles undersized",[1]; [3],20.56 μm
same,"Particle size D (v, 0.91) 90% particles undersized",[1]; [3],45.97 μm
same,median particle size D50,[1]; [4],24.91 μm
same,particle size D10,[1]; [4],6.59 μm
same,particle size D90,[1]; [4],63.31 μm
same,solubility in water,[2],practically insoluble
